# Key:
# SWELL1 protein = SWELL1 protein expression by Western blot in 3T3-F442A preadipocytes and adipocytes; type: cell-based; details: 10 μM applied for 96 hours
# Experimental: (§1) For Smod1 (DCPIB) mediated induction of SWELL1 and insulin signaling studies in 3T3-F442A preadipocytes, the cells were incubated with either vehicle (DMSO) or 10 μM Smod1 for 96 h. The cells were serum starved for 6 h (+DMSO or Smod1) and stimulated with 0, 3 and 10 nM insulin containing media (−DMSO or Smod1), as described above for 15 mins and the lysates were collected. In the case of 3T3-F442A adipocytes, the WT and KO cells were treated with either vehicle (DMSO) or 10 μM Smod1 following 7-11 days of differentiation for 96 h and then stimulated with 0 and 10 nM insulin for 15 min, as described above. Human embryonic kidney (HEK) cells were cultured and maintained in 90% DMEM (25 mM D-Glucose and 4 mM L-Glutamine) containing 10% fetal bovine serum (FBS) and 100 IU penicillin and 100 μg/ml streptomycin media.
# (§2) Electrophysiology Patch-clamp recordings of β-cells and mature adipocytes were performed as described previously (Zhang et al., Nat Cell Biol, 19, 504-517, 2017; Kang et al., Nature Communications, 9, 367, 2018). 3T3-F442A WT and KO preadipocytes were prepared as described in the Cell culture section above. […] Recordings were measured using Axopatch 200B amplifier paired to a Digidata 1550 digitizer using pClamp 10.4 software. […] The images were further analyzed for band intensities using ImageJ software. […]
# [1] = test system: insulin-AKT2-AS160 signaling; assay: Insulin-stimulated pAKT2/pAS160 signaling in 3T3-F442A cells (Western blot); type: cell-based
# Experimental: as §1
# Electrophysiology Patch-clamp recordings of β-cells and mature adipocytes were performed as described previously (Zhang et al., Nat Cell Biol, 19, 504-517, 2017; Kang et al., Nature Communications, 9, 367, 2018). 3T3-F442A WT and KO preadipocytes were prepared as described in the Cell culture section above. For SWELL1 overexpression recordings, preadipocytes were first transduced with Ad5-CAG-LoxP-stop-LoxP-3× Flag-SWELL1 (MOI 12) in 2% FBS culture medium for two days and then overexpression induced by adding Ad5-CMV-Cre-wt-IRES-eGFP (MOI 10-12) in 2% FBS culture medium for two more days and changed to 10% FBS containing culture media and were selected based on GFP expression (˜2-3 days). For 3-cell recordings, islets were transduced with Ad-RIP2-GFP and then dispersed after 48-72 hours for patch-clamp experiments. GFP+ cells marked […] selected for patch-clamp recordings. Recordings were measured using Axopatch 200B amplifier paired to a Digidata 1550 digitizer using pClamp 10.4 software. The extracellular buffer composition for hypotonic stimulation contains 90 mM NaCl, 2 mM CsCl, 1 mM MgCl2, 1 mM CaCl2), 10 mM HEPES, 10 mM Mannitol, pH 7.4 with NaOH (210 mOsm/kg). […] The images were further analyzed for band intensities using ImageJ software. […]
# [2] = Traced hyperinsulinemic euglycemic clamp in KKA^y mice; type: in vivo, mouse
# ICl,SWELL = target: T1, ICl,SWELL (Homo sapiens, UniProt Q8IWT6); assay: ICl,SWELL patch-clamp upon hypotonic stimulation; type: cell-based; details: 10 μM Smod1, HEK cells (FIG. 2f)
# T1 construct: endogenous in cells; host or cells: HEK cells (printed 'BEK cells')
# T1 sequence (Q8IWT6 1-810): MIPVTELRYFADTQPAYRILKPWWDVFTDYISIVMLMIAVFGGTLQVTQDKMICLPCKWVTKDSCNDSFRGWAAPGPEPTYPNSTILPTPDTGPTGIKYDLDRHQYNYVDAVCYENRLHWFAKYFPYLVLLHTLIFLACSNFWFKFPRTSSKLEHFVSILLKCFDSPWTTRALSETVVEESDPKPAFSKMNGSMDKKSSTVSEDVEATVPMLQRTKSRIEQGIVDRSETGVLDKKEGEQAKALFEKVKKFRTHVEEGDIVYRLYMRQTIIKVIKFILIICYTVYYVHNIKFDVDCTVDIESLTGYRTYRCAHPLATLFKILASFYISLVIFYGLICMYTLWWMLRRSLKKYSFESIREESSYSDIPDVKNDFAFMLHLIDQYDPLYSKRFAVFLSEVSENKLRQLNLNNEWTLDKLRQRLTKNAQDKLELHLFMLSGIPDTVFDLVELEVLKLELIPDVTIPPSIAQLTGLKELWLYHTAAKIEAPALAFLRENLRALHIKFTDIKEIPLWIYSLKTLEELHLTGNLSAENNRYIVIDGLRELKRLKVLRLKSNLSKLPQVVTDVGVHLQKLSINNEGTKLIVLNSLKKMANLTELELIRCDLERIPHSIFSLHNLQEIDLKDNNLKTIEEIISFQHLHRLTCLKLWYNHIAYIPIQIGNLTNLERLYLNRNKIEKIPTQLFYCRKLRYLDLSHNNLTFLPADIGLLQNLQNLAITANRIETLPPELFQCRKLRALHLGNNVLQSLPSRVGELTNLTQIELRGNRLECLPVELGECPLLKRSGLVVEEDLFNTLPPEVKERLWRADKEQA
# Experimental: as §1, §2
smiles,measurement,setting,value
"CCCCC1(C2CCCC2)Cc2cc(OCCCC(=O)O)c(Cl)c(Cl)c2C1=O (stereo not shown) [Smod1, 4-[(2-Butyl-6,7-dichloro-2-cyclopentyl-2,3-dihydro-1-oxo-1H-inden-5-yl)oxy]butanoic acid]",increase of SWELL1 protein expression,SWELL1 protein; 3T3-F442A adipocytes,1.5 fold
same,increase of SWELL1 protein expression,SWELL1 protein; 3T3-F442 preadipocytes,β
same,effects on insulin-AKT2-AS160 signaling in SWELL1 KO,[1]; SWELL1 KO 3T3-F442A adipocytes,absent
same,insulin-stimulated pAS160,"[1]; WT 3T3-F442A adipocytes, 10 μM for 96 h",enhanced
same,insulin-stimulated pAKT2,"[1]; WT 3T3-F442A preadipocytes/adipocytes, 10 μM for 96 h",enhanced
same,glucose-infusion rate (GIR) to maintain euglycemia,"[2]; KKA^y mice, 5 mg/kg for 4 days",33.58 ± 3.4 mg/kg/min
same,reduction of hepatic glucose production (Ra),"[2]; KKA^y mice, baseline (basal)",~1.6 fold
same,suppression of hepatic glucose production (Ra),"[2]; KKA^y mice, during glucose/insulin infusion (clamp)",4.8 fold
same,enhancement of insulin stimulated 2-DG uptake,"[2]; brown fat, skeletal muscle, KKA^y mice","not in brown fat, or skeletal muscle"
same,insulin stimulated 2-DG uptake,"[2]; inguinal white adipose tissue (iWAT), KKA^y mice",7.0 ± 0.78 nmol/min/g
same,glucose-incorporation into glycogen,"[2]; liver, adipose and skeletal muscle",markedly increased
same,insulin stimulated 2-DG uptake,"[2]; myocardium (Heart), KKA^y mice",451.3 ± 24.63 nmol/min/g
same,"ICl,SWELL inward and outward current after hypotonic stimulation","ICl,SWELL",inhibition
